This note sets out measurements from PMC11184554, “Nature-Inspired Gallinamides Are Potent Antischistosomal Agents: Inhibition of the Cathepsin B1 Protease Target and Binding Mode Analysis” (ACS Infectious Diseases, 2024).

Values joined by “and” are separate entries in the source; they are usually repeats but may differ in a detail not shown here. Identical values can stand only once. Like-named read-outs stand apart in the source and are kept apart here.

As a reminder, the IC50 is the concentration needed to halve the response being measured. As usually defined, the viability is a read-out of living cells in per cent, often relative to untreated cells.

The target in one series is SmCB1 (Schistosoma mansoni, UniProt Q8MNY2, T185A/T300A). Put plainly: SmCB1 IC50 determination with 30 min preincubation. Format: biochemical, S. mansoni. The method, then: Inhibition measurements were performed in duplicate in 96-well microplates (100 μL assay volume) at 37 °C. SmCB1 (40 pM) was added to a mixture of the fluorogenic substrate Cbz–Phe–Arg–AMC (25 μM) and an inhibitor (0–100 μM) in 0.1 M sodium acetate, pH 5.5, containing 2.5 mM dithiothreitol and 0.01% (w/v) BRIJ 35. Substrate hydrolysis was monitored in an Infinite M1000 microplate reader (Tecan) at excitation and emission wavelengths of 360 and 465 nm, respectively, for up to 150 min. An observed first-order rate constant, kobs, was calculated at each inhibitor concentration by fitting the progress curve to the equation P = vi/kobs(1 – exp(−kobst)) + d where P is the product formation, t is the reaction time, vi is the initial velocity, and d is the offset. […] The second-order rate constant, k2nd, (and SE value) was determined by fitting the linear equation kobs = (k2nd[I])/(1 + [S]/Km), where [S] is the substrate concentration, [I] is the inhibitor concentration, and KM is the Michaelis–Menten constant. The KM value determined for SmCB1 was 25 μM. […] To determine IC50 values, SmCB1 (40 pM) was preincubated with the inhibitor (0–100 μM) for 30 min under assay conditions as described above, followed by the addition of the fluorogenic substrate Cbz–Phe–Arg–AMC (20 μM). Substrate hydrolysis was monitored for 30 min in a microplate reader as described above. The IC50 values were determined by nonlinear regression using GraFit software (Erithacus Software).

The nature of series [1]: Cytotoxicity, CellTiter Glo 2.0. Format: cell-based. The conditions noted are these: human, ± SD; for viability at 72 h, 1 µM: panel A, read-out: Cell line viability after 72 h (%); for viability at 24 h, 10 µM / viability at 48 h, 10 µM / viability at 72 h, 10 µM: panel B, read-out: Cell line viability (%) after treatment with 10 µM compound. The procedure: Table S4. Cytotoxicity of gallinamides.
Cytotoxicity of gallinamide A and compounds 1, 6, and 9 was tested with four human cell lines and expressed as % viability vs. untreated cells. Cells were treated with the indicated compound concentrations for 72 h (A) or with 10 µM compounds for the indicated time (B) and assayed using CellTiter Glo 2.0 (Promega) according to the manufacturer’ s protocol. Cytotoxicity was expressed as percent viability compared to untreated control cells; the standard deviation of the mean of quadruplicate readings is shown. Cell line abbreviations: HL-60, human promyelocytic leukemia; HeLa, human cervical carcinoma; HepG2, human hepatocellular carcinoma; NHDF, normal human dermal fibroblasts.
Cell line viability after 72 h (%)
Cell line HL-60 HeLa HepG2 NHDF
Cell line viability (%) after treatment w ith 10 µM compound
For orientation: In ATP-based viability assays light output follows the ATP content of the culture.

The test system of the next series is cathepsin B. Put plainly: Protease activity in S. mansoni adult extract, cathepsin B substrates (continuous fluorometric assay). It counts as biochemical. To be noted: 1 μM gallinamide A, relative to uninhibited control, mean ± SD. The source says: We investigated whether gallinamide A inhibits the activity of the major proteases associated with proteolytic digestion in the adult schistosome gut. The digestive protease network includes the cysteine proteases cathepsins B, C, L from clan CA and legumain from clan CD, and an aspartic protease cathepsin D from clan AA.[11],[12] Their respective activities can be measured in protein extracts of S. mansoni using a kinetic assay with specific fluorogenic substrates. In addition, these activities can be attributed to particular proteases based on sensitivity to selective inhibitors[30]−[32] (Table 1). Accordingly, we exposed worm extracts to gallinamide A and analyzed the individual protease activities. Gallinamide A inhibited both the carboxydipeptidase (98%) and endopeptidase activities (94%) of cathepsin B as measured with the respective substrates, Abz–Phe–Arg–Val–Nph[15] and Cbz–Arg–Arg–AMC[33],[34] (Table 1). The activity measured with the Cbz–Phe–Arg–AMC substrate,[11],[13],[16],[33],[35] which can be cleaved by both cathepsins B and L, was inhibited by gallinamide A to a lesser extent (72%). […]
Proteolytic activities in S. mansoni adult extracts were measured in a continuous kinetic assay using the following peptidyl fluorogenic substrates (Bachem) or internally quenched FRET substrates (IOCB): 50 μM Cbz–Phe–Arg–AMC for cathepsins B and L,[13],[15] […]

Sequence of SmCB1 (Q8MNY2 87-340 T185A/T300A): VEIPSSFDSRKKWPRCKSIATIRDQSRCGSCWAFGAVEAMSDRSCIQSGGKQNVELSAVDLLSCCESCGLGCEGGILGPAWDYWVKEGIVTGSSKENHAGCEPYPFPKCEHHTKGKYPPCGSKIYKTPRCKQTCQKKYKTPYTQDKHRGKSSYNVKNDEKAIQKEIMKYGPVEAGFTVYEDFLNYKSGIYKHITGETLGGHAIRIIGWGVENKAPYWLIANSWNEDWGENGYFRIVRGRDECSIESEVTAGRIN

`CCC(C)C(C(=O)OC(CC(C)C)C(=O)NC(CC(C)C)C(=O)NC(C)C=CC(=O)N1C(=O)C=C(OC)C1CC(C)C)N(C)C` (stereo not shown) [compound 1] gave an IC50 against SmCB1 of 92 nM. That is a double-digit nanomolar value.

As for `COC1=CC(=O)N(C(=O)/C=C/[C@H](C)NC(=O)[C@H](CC(C)C)NC(=O)[C@H](CC(C)C)OC(=O)[C@H](Cc2ccccc2)N(C)C)[C@H]1Cc1ccccc1` [compound 6], the viability at 72 h, 1 µM was determined as 100 ± 5% in series [1] (HL-60, vs untreated cells); 93 ± 4% in series [1] (HeLa); 104 ± 3% in series [1] (HepG2); 99 ± 3% in series [1] (NHDF). Further, the viability at 24 h, 10 µM came out at 31 ± 1% in series [1] (HL-60), 45 ± 1% in series [1] (HeLa), 61 ± 1% in series [1] (HepG2) and 100 ± 2% in series [1] (NHDF). The viability at 48 h, 10 µM was found to be 11 ± 2% in series [1] (HL-60), 13 ± 1% in series [1] (HeLa), 14 ± 1% in series [1] (HepG2) and 35 ± 3% in series [1] (NHDF). The viability at 72 h, 10 µM in series [1] (HL-60) came out at 11%; in series [1] (HeLa) it was 13 ± 1%; in series [1] (HepG2) it was 13 ± 1%; in series [1] (NHDF), 13 ± 13%. On SmCB1, the midpoint of inhibition, the IC50, lay at 517 nM.

For `CC[C@H](C)[C@@H](C(=O)O[C@@H](CC(C)C)C(=O)N[C@@H](CC(C)C)C(=O)N[C@@H](C)/C=C/C(=O)N1C(=O)C=C(OC)[C@@H]1C)N(C)C` [gallinamide A], the viability at 72 h, 1 µM was determined as 100 ± 6% in series [1] (HL-60, vs untreated cells); 96 ± 4% in series [1] (HeLa); 96 ± 3% in series [1] (HepG2); 105 ± 6% in series [1] (NHDF). For the same compound, the viability at 24 h, 10 µM in series [1] (HL-60) stood at 99 ± 5%; in series [1] (HeLa) it was 77 ± 4%; in series [1] (HepG2), 93 ± 6%; in series [1] (NHDF), 80 ± 2%. The viability at 48 h, 10 µM was found to be 77 ± 3% in series [1] (HL-60), 73 ± 3% in series [1] (HeLa), 98 ± 7% in series [1] (HepG2) and 89 ± 3% in series [1] (NHDF). The viability at 72 h, 10 µM in series [1] (HL-60) was 73 ± 5%; in series [1] (HeLa), 88 ± 6%; in series [1] (HepG2), 94 ± 11%; in series [1] (NHDF), 94 ± 94%. On SmCB1, this compound registered an IC50 of 44 nM. For the same compound, the “inhibition (%)” value with cathepsin B (endopeptidase activity, substrate Cbz–Arg–Arg–AMC) is 94% and 93.7 ± 0.3%; in the series on cathepsin B (exopeptidase (carboxydipeptidase) activity, substrate Abz–Phe–Arg–Val–Nph), 98.0 ± 2.2%.
